Source: the supplement of paper PMC8837787

What follows are compounds tested on Saccharomyces cerevisiae ABC16-Green Monster. Conditions: 18 h; 30 °C; YPD.
Method in brief: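 In 96-well plates, 200 µl per well of log-phase drug-sensitive S. cerevisiae ABC16-Green Monster in YPD received eight 1:2 compound dilutions (final 0.1–150 μM) in biological duplicate and was incubated for 18 h at 30 °C. OD600 was read at the start and at 18 h. IC50 was fitted to the background-subtracted readings by variable-slope nonlinear regression in GraphPad Prism.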

SMILES | IC50 growth inhibition [µM]
COC1CC2CCC(C)C(O)(O2)C(=O)C(=O)N2CCCCC2C(=O)OC(C(C)CC2CCC(OCCO)C(OC)C2)CC(=O)C(C)C=C(C)C(O)C(OC)C(=O)C(C)CC(C)C=CC=CC=C1C (stereo not given) [Everolimus] | 0.0415
Fc1ccc2[nH]c3c(N4CCN(C(c5ccccc5)c5ccccc5)CC4)ncnc3c2c1 [GNF-Pf-2775] | 0.723
O=C(CCCCCCC(=O)Nc1ccccc1)NO [Vorinostat] | > 75
CCC(C)n1ncn(-c2ccc(N3CCN(c4ccc(OCC5COC(Cn6cncn6)(c6ccc(Cl)cc6Cl)O5)cc4)CC3)cc2)c1=O (stereo not given) [Itraconazole] | 7.53
N#Cc1c(N2CCCC2)nn(C(=O)Nc2ccc(Cl)c(Cl)c2)c1N | 4.53
Clc1ccc(COC(Cn2ccnc2)c2ccc(Cl)cc2Cl)c(Cl)c1 (stereo not given) [Miconazole] | 0.007
CN(CC=CC#CC(C)(C)C)Cc1cccc2ccccc12.Cl [Terbinafine] | 76.9
N.N.O=C([O-])C1(C(=O)[O-])CCC1.[Pt+2] [Carboplatin] | > 75
COc1cc(N2CCC(N3CCN(C)CC3)CC2)ccc1Nc1ncc(Cl)c(Nc2ccccc2P(C)(C)=O)n1 [Brigatinib] | > 75
Cc1cc(=O)[nH]c(-n2nc(C3CC3)cc2NC(=O)C2(c3ccc(Cl)cc3)CCCC2)n1 [CBR668] | 1.93
O=C1C2=C(Nc3ccccc3SC2c2ccc(OCc3ccccc3)cc2)c2ccccc21 (stereo not given) [GNF-PF-5338] | > 150
COc1cc(-c2cc(-c3ccc(S(C)(=O)=O)cc3)cnc2N)ccc1O | 22
Cc1cc(C2CCCCC2)n(O)c(=O)c1 [Ciclopirox] | 33.4
c1ccc(CNc2nc(Nc3ccccc3)nc3ccccc23)cc1 | 8.62
C(#Cc1ccc(-c2cc[nH]n2)s1)c1ccccc1 | 18.9
Cc1cc(C(=O)NCCSc2ccccc2)c(C)n1C(C)C | 60.5
Cc1nc([P+](c2ccccc2)(c2ccccc2)c2ccccc2)c(SCc2ccccc2)o1 [GNF-Pf-3891] | 5.85
O=C(C1CCCCC1)N1CC(=O)N2CCc3ccccc3C2C1 (stereo not given) [Praziquantal] | > 75
O=C1c2ccccc2C2=Nc3ccccc3SC(c3cccc(F)c3)C12 (stereo not given) | 1.68
C[C@H](c1ccc2c(c1)CCCC2)N(C)c1ncc2c(N)nc(N)nc2n1 | 30.5
c1ccc(-c2nc(NC3CCCCC3)cc(C3CC3)n2)nc1 | 44.5
NC(=O)NO [Hydroxyurea] | > 75

SMILES | IC50 growth inhibition [µM]
CC(=O)N(C1=C(N2CCOCC2)C(=O)c2ccccc2C1=O)c1cccc(Cl)c1 [GNF-Pf-2288] | 41.7
COc1ccc(C2c3ccc4ccccc4c3Oc3ncn(CCCN(C)C)c(=N)c32)cc1 (stereo not given) | 28.9
CC(C)Sc1cccc(C(=O)Nc2nnc(-c3ccnn3C(C)C)o2)c1 [CBR113] | 2.48
c1ccc(-c2cn3nc(N4CCN(Cc5cn6ccccc6n5)CC4)sc3n2)cc1 | 50.8
CC(C)(C)c1ccc2c(c1)CN(Cc1ccc(Cl)cc1)CO2 | 14.3
CCS(=O)(=O)c1ncc(Cl)c(C(=O)Nc2ccc(C(=O)OC)cc2)n1 | 17.4
Cc1cc(C(=O)Cn2cnc3ccccc3c2=O)c(C)n1-c1ccccc1 | 61
C=CCn1c(C)cc(C(=O)CSc2nc3ccccc3o2)c1C | 11.2
OC1=C2C(=Nc3ccccc3SC2c2ccccc2)c2ccccc21 (stereo not given) [GNF-Pf-4583] | 2.54
CNC(=O)c1cc(Oc2ccc(NC(=O)Nc3ccc(Cl)c(C(F)(F)F)c3)cc2)ccn1 [Sorafenib] | 4.27
CN1CCC(NCc2cccc(-c3ccc(S(=O)(=O)NCc4ccccc4)cc3)c2)CC1 | 50.8
CCCOC(=O)C1=C(C)NC2=C(C(=O)CC(c3ccc(OC)c(OC)c3)C2)C1c1ccc(Cl)cc1Cl (stereo not given) [GNF-Pf-5672] | 5.08
CCOC(=O)Nc1ccc(NCc2ccc(F)cc2)cc1N [Retigabine] | > 75
O=C(Nc1ccc2c(c1)B(O)OC2)c1ccccc1C(F)(F)F | 1.72
c1ccc(-c2cc(N3CCCCC3)c3ccccc3n2)nc1 | 42.9
C=CCc1c(C)nc2c(-c3ccccc3)cnn2c1N1CCN(CCO)CC1 | 62.8
Cc1ccc(N/N=C/c2c3ccccc3cc3ccccc23)cc1Cl | 14
O=P(O)(O)C(O)(Cn1ccnc1)P(=O)(O)O [Zoledronate] | > 75
Br.Cc1ccnc(Nc2nc(-c3ccccn3)cs2)c1 [GNF-Pf-4739] | 4.6
CC1=Nn2cc(-c3ccccc3)nc2SC1c1ccccc1 (stereo not given) | 64.2
Clc1cccc(C(c2ccc(CN3CCNCC3)cc2)n2ccnc2)c1 (stereo not given) | 28.7
CN(C)CCCN1c2ccccc2CCc2ccc(Cl)cc21.Cl [Clomipramine] | 18.3

SMILES | IC50 growth inhibition [µM]
CNS(=O)(=O)c1ccc(C(=O)Nc2ccc(Nc3ccccc3)cc2)o1 | 92.5
CCC(=C(c1ccc(O)cc1)c1ccc(OCCNC)cc1)c1ccccc1 [Endoxifen] | 8.3
CS(=O)(=O)CCNCc1ccc(-c2ccc3ncnc(Nc4ccc(OCc5cccc(F)c5)c(Cl)c4)c3c2)o1 [lapatinib] | 5.96
CC(C)Oc1cc(Nc2nc(N[C@@H](C)c3ccc(F)cc3)c(C#N)cc2F)[nH]n1 [AZD-6918] | > 75
Cc1c(C)n(CCCN(C)C)c2ncn3nc(-c4ccc(N(C)C)cc4)nc3c12 | 42.3
CC(=O)NCC1CN(c2ccc(N3CCSCC3)c(F)c2)C(=O)O1 (stereo not given) [Sutezolid] | > 75
O=C(COc1cccc(F)c1)Nc1nc(-c2ccccn2)cs1 | 35.1
O=C(Nc1nc(-c2ccccn2)cs1)c1cncn1-c1ccccc1 | 26.2
CCCCCCCCCCCCCCCCCCOCC(COP(=O)([O-])OCC[N+](C)(C)C)OC (stereo not given) [Edelfosine] | 29.1
CN1CC(C(=O)NC2(C)OC3(O)C4CCCN4C(=O)C(Cc4ccccc4)N3C2=O)CC2c3cccc4[nH]cc(c34)CC21 (stereo not given) [Dihydroergotamine] | > 75
Cc1cc(F)c(C(=O)Nc2cccc(-c3nncn3C(C)C)n2)cc1-n1cnc(C2CC2)c1 [GS-4997] | > 75
O=C(Nc1ccc(C(F)(F)F)c(C(F)(F)F)c1)c1cc(Cl)ccc1O | 5.64
CCC(=O)NC(c1ccccc1Cl)c1cc(Cl)c2cccnc2c1O (stereo not given) [GNF-Pf-5038] | 6.51
COc1ccc(C2CC(=O)C3=C(C2)NC(C)=C(C(=O)OC2CCCC2)C3c2ccc([N+](=O)[O-])cc2)cc1OC (stereo not given) [GNF-Pf-5639] | 9.8
OCCNc1nc(Nc2ccc(Cl)c(Cl)c2)nc2ccccc12 | 14
CSc1ccccc1C(=O)Nc1nc(-c2ccccn2)cs1 | 10.8
O=C(Nc1nc(-c2ccccn2)cs1)c1ccccc1Br | 8.35
Cc1cc(Nc2cccc(F)c2)nc(NCc2ccccc2)n1 | 21.9
Cc1ccc2nc(-c3ccc(N(C)C)cc3)[nH]c2c1 | 11.8
CC1CCC2C(C)C(=O)OC3OC4(C)CCC1C32OO4 (stereo not given) [Artemisinin] | 34.3
Cc1cc(Nc2nc(N[C@@H](C)c3ncc(F)cn3)ncc2Cl)n[nH]1 [AZD-1480] | 58.6
NC(CC(=O)c1ccc(Cl)cc1Cl)C(Cl)(Cl)Cl (stereo not given) | 46.4

SMILES | IC50 growth inhibition [µM]
CCCC(CCC)C(=O)O [Valproic acid] | > 75
CC1N(C)c2ccc(/C=C/c3cc[n+](C)cc3)cc2C1(C)C (stereo not given) | 55.2
Oc1c(C(Nc2ccccn2)c2cccc(Cl)c2Cl)ccc2cccnc12 (stereo not given) [GNF-Pf-5250] | > 150
Cc1ccc(-n2nc(C(C)(C)C)cc2NC(=O)NCc2cc(F)ccc2Oc2ccc3c(cnn3CCO)c2)cc1 [Pexmetinib] | > 75
COc1ccc(-c2cnc3ccc(N4CCCC4)nn23)cc1OC | 68.5
O=C(Nc1c(O)cccc1-c1nc2c(C(=O)O)cccc2o1)c1cc(-c2ccccc2)on1 | 38.7
Oc1ccc(C(=C(Cl)Cl)c2ccc(O)cc2)cc1 | 6.96
CCC(=C(c1ccccc1)c1ccc(OCCN(C)C)cc1)c1ccccc1 [Tamoxifen] | 3.13
COc1cc(CNC(=O)CCCCC=CC(C)C)ccc1O [Capsaicin] | > 150
O=c1c(Cl)c(Cl)cnn1-c1nc2ccccc2[nH]1 | 13.2
Cc1nn(C)cc1C(C)Nc1nncc(-c2ccc(C(F)(F)F)cc2)n1 (stereo not given) | 44.9
CC1C=CC=CC=CC=CC=CC=CC=CC(OC2OC(C)C(O)C(N)C2O)CC2OC(O)(CC(O)CC(O)C(O)CCC(O)CC(O)CC(=O)OC(C)C(C)C1O)CC(O)C2C(=O)O (stereo not given) [Amphotericin B] | 63.3
C=CCn1c(C)cc(C(=O)CSc2nc3ccccc3[nH]2)c1C | 4.24
COc1cc(NC(C)CCCN)c2ncccc2c1 (stereo not given) [Primaquine] | 107
COC(=O)C1=C(C)NC(C)=C(C(=O)OC(C)C)C1c1cccc2nonc12 (stereo not given) [Israpidine] | > 150
CN(C)CCC=C1c2ccccc2CCc2ccccc21 [Amitriptyline] | 56.8
COc1ccc(Nc2nc(NCc3ccccc3)c3ccccc3n2)cc1 | 7.72
CC(=O)OC1C(=O)C2(C)C(O)CC3OCC3(OC(C)=O)C2C(OC(=O)c2ccccc2)C2(O)CC(OC(=O)C(O)C(NC(=O)c3ccccc3)c3ccccc3)C(C)=C1C2(C)C (stereo not given) [Paclitaxel] | > 75
CCS(=O)(=O)c1ncc(Cl)c(C(=O)Nc2cc(Cl)cc(Cl)c2)n1 | 6.66
